ChEMBL document CHEMBL6092142, “Discovery and preclinical profile of YK-2168, a differentiated selective CDK9 inhibitor in clinical development” (Bioorg Med Chem Lett, 2024)

Key:
[1] = Selectivity index, ratio of IC50 for inhibition of CDK1 (unknown origin) to IC50 for inhibition of CDK9 (unknown origin)
[2] = Selectivity index, ratio of IC50 for inhibition of CDK2 (unknown origin) to IC50 for inhibition of CDK9 (unknown origin)
MV4-11 [3] = assay: Antiproliferative activity against human MV4-11 cells assessed as cell viability; format: functional, cell-based
[4] = biological target: Cyclin-dependent kinase 2 (Homo sapiens, UniProt P24941); assay: Inhibition of CDK2 (unknown origin)
[5] = Toxicity in mouse assessed as change in body weight at 10 mg/kg, iv measured upto 28 days; format: organism-based; settings: in vivo, 672 h, time < 28 day
[6] = Half life in CD-1 mouse at 2 mg/kg, iv; format: ADME, organism-based; settings: in vivo
[7] = biological target: Cyclin-dependent kinase 1 (Homo sapiens, UniProt P06493); assay: Inhibition of CDK1 (unknown origin)
MV4-11 [8] = assay: Antitumor activity against human MV4-11 cells xenografted in mouse assessed as tumor growth inhibition at 10 mg/kg, iv measured upto 28 days; format: functional; settings: MV4-11, 672 h, time <= 28 day, read-out: TGI
[9] = Volume of distribution in CD-1 mouse at 2 mg/kg, iv; format: ADME, organism-based; settings: in vivo
[10] = AUC (0 to 24 hrs) in CD-1 mouse at 2 mg/kg, iv; format: ADME, organism-based; settings: in vivo
[11] = Clearance in CD-1 mouse at 2 mg/kg, iv; format: ADME, organism-based; settings: in vivo

Sequence of Cyclin-dependent kinase 1 (P06493 whole entry): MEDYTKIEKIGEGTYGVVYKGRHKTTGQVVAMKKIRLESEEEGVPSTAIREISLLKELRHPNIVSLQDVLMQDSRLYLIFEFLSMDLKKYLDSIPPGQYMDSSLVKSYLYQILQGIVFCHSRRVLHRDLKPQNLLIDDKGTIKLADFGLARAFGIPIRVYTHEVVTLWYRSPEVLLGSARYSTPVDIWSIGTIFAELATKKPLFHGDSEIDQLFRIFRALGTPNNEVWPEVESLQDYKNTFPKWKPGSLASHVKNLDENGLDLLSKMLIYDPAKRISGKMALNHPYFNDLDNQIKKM

Clc1cnc2[nH]c(C3CCNCC3)cc2c1-c1cnn(CC2CC2)c1
Ratio IC50 [1]: 11.5 | Ratio IC50 [2]: 14.5 | IC50 (MV4-11 [3]): 14.7 nM

Clc1cnc2[nH]c(C3CCNCC3)nc2c1-c1cnn(CC2CC2)c1
Ratio IC50 [2]: 35.5 | IC50 (MV4-11 [3]): 464 nM

COc1cc(F)ccc1-c1cc(Nc2cc(CS(C)(=N)=O)ccn2)ncc1F (stereo not given) [ENITOCICLIB]
IC50 [4]: 231 nM | Activity [5]: Non-toxic | t1/2 ([6]; mouse, iv, 2 mg/kg): 26.4 min | IC50 [7]: 250 nM | inhibition in vivo at 10 mg/kg (MV4-11 [8]): 65% | IC50 (MV4-11 [3]): 92.4 nM | Vd ([9]; mouse, iv, 2 mg/kg): 1.27 L/kg | AUC ([10]; mouse, iv, 2 mg/kg): 2.686 µM·h

COCC(C)N1CCC(c2cc3c(-c4cnn(CC5CC5)c4)c(Cl)cnc3[nH]2)CC1 (stereo not given)
Ratio IC50 [1]: 107 | Ratio IC50 [2]: 41 | IC50 (MV4-11 [3]): 52 nM

CC(=O)N[C@@H]1CCC[C@H](C(=O)Nc2cc(-c3cnn4c3CC(C)(C)C4)c(Cl)cn2)C1 [ZEMIRCICLIB]
half-life ([6]; CD-1, mouse): 6 min | Vd ([9]; CD-1, mouse, read-out: Vd): 0.52 L/kg | clearance [11]: 78.1 mL/min/kg | AUC(0-t) ([10]; CD-1, mouse): 0.992 µM·h
